{"source": "patent US6911478B2", "about": "“Nitric oxide-releasing amidine- and enamine-derived diazeniumdiolates, compositions and uses thereof and method of making same” (The United States of America as represented by the …, priority 1997, dated 2005)", "type_in_all_cases": "physicochemical", "key": {"[1]": {"experiment": "time course of NO production in phosphate buffer pH 7.4 at 37° C., chemiluminescence detector", "settings": "phosphate buffer pH 7.4, 37° C.; for initial NO release rate: start of experiment", "experimental": "This example describes the measurement of the time course of NO production by amidine and enamine nitric oxide adducts.\nThe NO release rate was measured periodically by flushing the solution with inert N2 gas and then sweeping newly generated NO into a chemiluminescence detector and integrating the signal produced over the next 4-7 mins. NO release was measured over a period of two weeks.\nNone of these compounds released nitric oxide via a single pathway which produced a release profile consistent with first order kinetics. Accordingly, the results of each test are summarized here by giving the initial NO release rate, the rate at one intermediate timepoint and the total time of observed NO release for representative examples."}, "[2]": {"experiment": "production of NO and N2O by amidine/nitric oxide adducts, headspace chemiluminescence (NO) and gas chromatography (N2O)", "settings": "for Yield NO / Yield N2O: headspace; for Yield NO: chemiluminescence; for Yield N2O: gas chromatography", "source_text": "(§1) Nitrous oxide (N2O), being the end product of HNO dimerization and dehydration, provided a measure of HNO production via the equation (Nagasawa et al., J. Med. Chem. 33: 3122-3124 (1990)): [drawing 12]\nThis example describes the measurement of the production of NO and N2O by amidine/nitric oxide adducts."}, "[3]": {"experiment": "gas evolution on dissolving in water and acidifying", "settings": "dissolved in water and acidified", "source_text": "as §1"}}, "data": [{"compound": "idazoxan-bis(nitric oxide) adduct [Example 7]", "values": [{"measurement": "time at which NO release reached zero", "setting": "[1]", "value": "≤ 16", "unit": "days"}, {"measurement": "NO release rate after 4 days", "setting": "[1]; after 4 days (gradually increased)", "value": "1.41×10^−10 moles NO/min./mg."}, {"measurement": "initial NO release rate", "setting": "[1]", "value": "5.25×10^−11 moles NO/min./mg."}]}, {"compound": "2-iminopiperidine bis(nitric oxide)adduct [Example 4]", "values": [{"measurement": "Yield NO", "setting": "[2]; pH 7.4 buffer", "value": "−0.08", "unit": "moles per mole cmpd"}, {"measurement": "Yield N2O", "setting": "[2]; pH 7.4 buffer", "value": 0.45, "unit": "moles per mole cmpd"}]}, {"compound": "O=NN(O)C1(C2=NCCN2)CCCCC1", "note": "[Example 5, 2-cyclohexyl-2-imidazoline bis(nitric oxide)adduct]", "values": [{"measurement": "Yield N2O", "setting": "[2]; 0.1 N HCl", "value": 0.2, "unit": "moles per mole cmpd"}]}, {"compound": "acetamidine tetrakis (nitric oxide) adduct [Example 3]", "values": [{"measurement": "Yield NO", "setting": "[2]; pH 7.4 buffer", "value": 0.05, "unit": "moles per mole cmpd"}, {"measurement": "Yield N2O", "setting": "[2]; pH 7.4 buffer", "value": 0.64, "unit": "moles per mole cmpd"}]}, {"compound": "tetrahydrozoline bis(nitric oxide)adduct [Example 6]", "values": [{"measurement": "total time of observed NO release (in words)", "setting": "[1]", "value": "continued for several weeks"}, {"measurement": "NO release rate, last quantitative measurement", "setting": "[1]; 15 days after the beginning", "value": "9.00×10^−12 moles NO per min. per mg."}, {"measurement": "NO release rate after 7 days", "setting": "[1]; after 7 days", "value": "2.06×10^−11 moles NO per min. per mg."}, {"measurement": "initial NO release rate", "setting": "[1]", "value": "3.64×10^−11 moles NO/min./mg."}]}, {"compound": "2-methyl-2-imidazoline tetrakis(nitric oxide)adduct [Example 2]", "values": [{"measurement": "Yield NO", "setting": "[2]; 0.1 N HCl", "value": 0.45, "unit": "moles per mole cmpd"}, {"measurement": "Yield N2O", "setting": "[2]; 0.1 N HCl", "value": 0.9, "unit": "moles per mole cmpd"}, {"measurement": "composition of evolving gas (NO and N2O)", "setting": "[2]; pH 7.4, NO by chemiluminescence, N2O by gas chromatography", "value": "2 parts NO (determined by chemiluminescence) and 1 part N2O"}, {"measurement": "gas evolution", "setting": "[3]", "value": "voluminous gas evolution"}]}, {"compound": "cyclohexanone morpholine enamine bis(nitric oxide) adduct [Example 9]", "values": [{"measurement": "NO release profile, kinetic order", "setting": "[1]", "value": "nearly first order kinetics"}, {"measurement": "time at which NO release reached zero", "setting": "[1]", "value": "≤ 7", "unit": "days"}, {"measurement": "NO release rate after 3 days", "setting": "[1]; after 3 days", "value": "1.8×10^−11 mole NO/min./mg."}, {"measurement": "initial NO release rate", "setting": "[1]", "value": "4.2×10^−11 moles NO/min./mg."}]}, {"compound": "isobutyraldehyde morpholine enamine bis (nitric oxide) adduct [Example 10]", "values": [{"measurement": "time at which NO release reached zero", "setting": "[1]", "value": 7, "unit": "days"}, {"measurement": "initial NO release rate", "setting": "[1]", "value": "3.7×10^−11 moles NO/min./mg."}, {"measurement": "NO release rate after rapid decrease", "setting": "[1]; remained at about this level for 4 days", "value": "7.0×10^−12 mole NO/min./mg."}]}]}
